“Also recorded” adds a separate entry of the source. Read-outs that look alike come from different tables or passages of the source.
How the values were obtained:
fibrocystic disease = settings: human, in vivo; cited from earlier work
[1] = tested on: breast tissue from a female rat on an iodine deficient diet; assay: Carcinogen added to iodine deficient rat model (FIG. 6); format: in vivo; settings: iodine deficient diet (FIG. 6)
Excerpt: This finding is supportive of the inventors' contention that fibrocystic disease enhances the risk of breast cancer causing sensitization of the breast tissue to various stimuli, including carcinogens. This sensitization process may explain the increased incidence of breast cancer in women in areas of deficient iodine intake, reported by Moosa et al. in "Thyroid Status and Breast Cancer", Royal College of Surgeons, England, 53, 1975.

[2] = tested on: DMBA-induced mammary tumors; assay: Dimethylbenzanthracene studies: mean tumor volume in DMBA treated rats; format: in vivo, Sprague-Dawley virgin female rats; settings: for Mean Tumor Volume, Exp. / Mean Tumor Volume, Week 10 / Mean Tumor Volume, Week 12 / Mean Tumor Volume, Week 14 / Mean Tumor Volume, Week 16 / Mean Tumor Volume, Week 18 / Mean Tumor Volume, Week 20 / Mean Tumor Volume, Week 22: DMBA treated rats, in mm³ (unit assumed)
Description: After adequate orientation of 48 hours, 80 Sprague-Dawley virgin female rats (A.A.I., PA) of 100-124 grams and approximately 37 days old, were divided randomly into eight groups each containing 10 rats. The animals were identified according to their phase, group, and rat numbers. The eight groups were labelled as Groups, IA1, IA2, IB1, IB2, IIA1, IIA2, IIB1, and IIB2. Each rat was weighed and marked for identification. Ear identification were as follows:
Group I was initially fed a normal diet and provided with double distilled drinking water (Ionics and IWT). Group II was initially fed a Remington iodine-deficient diet (Teklad, WI) during which they received double distilled drinking water.
At the end of fourteen days, and at 50-56 days old, groups I and II were divided into groups A and B. Groups IA and IIA were treated with 15 mg 7,12 Dimethylbenzanthracene (Eastman Kodak, NY) dissolved in 1 ml sesame oil by gavage. Groups IB and IIB were given a sham feeding of 1 ml of sesame oil at this time also. Only 10 rats a day were given this treatment. For the first twelve hours after treatment, the rats were housed in the fume hood and then taken to the Animal House where they were placed in the same room as groups IB and IIB. The rats in groups IA and IIA continued to be fed a normal diet and iodine-deficient diet, respectively. Groups IB and IIB also continued to receive their respective diets.
The following phases received iodine replacement therapy at these times:
Phase 1--at time of initial feeding of Remington diet
Phase 2--at time of DMBA pulse
Phase 3--at 10 days after DMBA treatment
Groups IA1, IB1, IIA1, and IIB1 received 2.67 ml/1000 ml dilution of a 0.3 mg/ml "mother" iodine concentrate for the rest of the experiment. The technique for making the iodine solution was as follows:
4) A second container was used to measure 2.67 ml of concentrate to 1000 ml DD H2 O. This dilution was then used as drinking water for the animals.
This daily dosage corresponds to the rats receiving 0.07-0.09 mg per kilogram body weight. The other groups continued to receive double distilled drinking water. Thus, the groups were arranged in the following order:
Palpations of the breasts were performed twice a week for the first 30 days after pulse DMBA was administered. The masses, if any, were drawn, measured by caliper, described as to consistency and freedom of motion, and all observations were recorded. After 30 days, the above observations were taken (including framing of tumor if larger than 5 mm) every 2 days and recorded.
Group 1, which was initially fed a normal diet, and Group 2 which was initially fed a Remington iodine deficient diet. Within the two groups are four subgroups, phases 1, 2 and 3, and a control. Phase 1 received iodine replacement therapy at the time of the initial feeding of either the Remington diet or the normal diet. Phase 2 received iodine replacement therapy at the time of DMBA treatment. Phase 3 received iodine replacement therapy 10 days after DMBA treatment.
*Volumes were calculated using the formula 4/3 ((L + W) .div. 2)
All measurements were recorded in centimeters designating the greatest

breast estrogen receptor = assay: Breast estrogen receptor activity and iodine; set-up: species or system rat
Excerpt: The biochemical pathway seems to be an intracellular attraction by iodine for estrogen receptors. […] Thus, cell metabolism is altered when there is "inadequate" iodine present.
A characteristic of breast cancer is the change in response to estrogen and estrogen receptor variability.

breast cancer = assay: Example 5: Incidence of breast cancer in women treated with elemental iodine; format: in vivo, human (women); settings: comparison with published series
Excerpt: The incidence of breast cancer in women treated with elemental iodine was compared with other published results, namely the results as published by the Ontario Cancer Research, and results published by Spratt.

endometriosis = assay: Example 6: Treatment of endometriosis with iodine; format: in vivo, human
Excerpt: An effective dose of elemental iodinte (I2) to cause such a subsidence of nodularity is about 1 to 20 milligrams per day. A daily dosage of elemental iodine for the treatment of endometriosis of about 3 milligrams to about 6 milligrams is also useful. The daily dosage can be administered in an aqueous solution containing about 0.30 milligrams of elemental iodine per millilitre of solution.
Two patients, both with a diagnosis of endometriosis and both treated with birth control pills previously with little result, were treated with diatomic iodine for 10 and 18 months, respectively.

[3] = tested on: DMBA-induced mammary gland neoplasia; assay: Example 4: Iodine treatment of induced breast tumors in rats; format: in vivo, rat
Excerpt: DMBA, a carcinogen, causes mammary gland neoplasia in rats. If these tumors contain breast peroxidase, tney respond to iodine and estrogen treatment. However, as the tumors become less responsive to iodine (hormone independent), breast peroxidase is found to be lacking.

[4] = tested on: breast tissue from a female rat on an iodine deficient diet; assay: Iodine replacement therapy in iodine deficient rats, morphology of breast tissue; format: in vivo
Excerpt: Studies on rats have included iodine replacement therapy in animals made iodine deficient by a Remington iodine-free diet.
The first iodine product used in the reversal experiment was sodium iodide.
FIG. 1 is a photomicrograph of the breast tissue of a human.
Biological Trace Element Research, Volume 5, 1983, 399-412. The material disclosed in these articles is incorporated herein by reference.
This deficiency can be obtained either through the use of an iodine deficient diet and/or through perchlorate treatment.

dysplastic mastodynia = settings: women with dysplastic mastodynia; cited from earlier work
[5] = tested on: breast tissue from a female rat on an iodine deficient diet; settings: Remington iodine-free diet; iodide salts in food, normal and excessive levels; cited from earlier work
[6] = Group I, Normal Diet, Iodine Phase I
[7] = Group I, Normal Diet, Iodine Phase II
[8] = Group I, Normal Diet, Iodine Phase III
[9] = Group II, ID (iodine-deficient) Diet, Iodine Phase I
[10] = Group II, ID (iodine-deficient) Diet, Iodine Phase II
[11] = Group II, ID (iodine-deficient) Diet, Iodine Phase III

C#C[C@]1(O)CC[C@H]2[C@@H]3CCC4=Cc5oncc5C[C@]4(C)[C@H]3CC[C@@]21C [danazol]
side effects in treatment of mammary dysplasia (fibrocystic disease): massive side effects

Cc1c2ccccc2c(C)c2c1ccc1ccccc12 [dimethyl benzanthracene, 7,12 Dimethylbenzanthracene]
progression of fibrocystic dysplasia [1]: progression from the benign state of fibrocystic dysplasia to overt malignancy

II [elemental iodine, diatomic iodine]
Mean Tumor Volume, Exp. [2, 6]: 320.524 | Mean Tumor Volume, Week 10 [2, 6]: 15.191 | Mean Tumor Volume, Week 12 [2, 6]: 53.565 | Mean Tumor Volume, Week 14 [2, 6]: 67.739 | Mean Tumor Volume, Week 16 [2, 6]: 97.979 | Mean Tumor Volume, Week 18 [2, 6]: 136.405 | Mean Tumor Volume, Week 20 [2, 6]: 155.904 | Mean Tumor Volume, Week 22 [2, 6]: 214.962 | Mean Tumor Volume, Exp. [2, 7]: 534.001 | Mean Tumor Volume, Week 10 [2, 7]: 7.603 | Mean Tumor Volume, Week 12 [2, 7]: 57.853 | Mean Tumor Volume, Week 14 [2, 7]: 106.887 | Mean Tumor Volume, Week 16 [2, 7]: 140.751 | Mean Tumor Volume, Week 18 [2, 7]: 216.033 | Mean Tumor Volume, Week 20 [2, 7]: 247.025 | Mean Tumor Volume, Week 22 [2, 7]: 320.468 | Mean Tumor Volume, Exp. [2, 8]: 392.61 | Mean Tumor Volume, Week 10 [2, 8]: 6.686 | Mean Tumor Volume, Week 12 [2, 8]: 24.079 | Mean Tumor Volume, Week 14 [2, 8]: 75.421 | Mean Tumor Volume, Week 16 [2, 8]: 90.319 | Mean Tumor Volume, Week 18 [2, 8]: 127.529 | Mean Tumor Volume, Week 20 [2, 8]: 184.717 | Mean Tumor Volume, Week 22 [2, 8]: 319.229 | Mean Tumor Volume, Exp. [2, 9]: 337.516 | Mean Tumor Volume, Week 10 [2, 9]: 4.048 | Mean Tumor Volume, Week 12 [2, 9]: 23.367 | Mean Tumor Volume, Week 14 [2, 9]: 65.244 | Mean Tumor Volume, Week 16 [2, 9]: 119.156 | Mean Tumor Volume, Week 18 [2, 9]: 155.189 | Mean Tumor Volume, Week 20 [2, 9]: 174.49 | Mean Tumor Volume, Week 22 [2, 9]: 238.883 | Mean Tumor Volume, Exp. [2, 10]: 613.044 | Mean Tumor Volume, Week 10 [2, 10]: 0.216 | Mean Tumor Volume, Week 12 [2, 10]: 54.934 | Mean Tumor Volume, Week 14 [2, 10]: 111.962 | Mean Tumor Volume, Week 16 [2, 10]: 168.475 | Mean Tumor Volume, Week 18 [2, 10]: 269.008 | Mean Tumor Volume, Week 20 [2, 10]: 401.774 | Mean Tumor Volume, Week 22 [2, 10]: 519.122 | Mean Tumor Volume, Exp. [2, 11]: 500.435 | Mean Tumor Volume, Week 10 [2, 11]: 5.816 | Mean Tumor Volume, Week 12 [2, 11]: 36.68 | Mean Tumor Volume, Week 14 [2, 11]: 81.81 | Mean Tumor Volume, Week 16 [2, 11]: 177.888 | Mean Tumor Volume, Week 18 [2, 11]: 203.824 | Mean Tumor Volume, Week 20 [2, 11]: 356.807 | Mean Tumor Volume, Week 22 [2, 11]: 393.328 | mean tumor volume, in words ([2]; pretreatment before DMBA, versus nontreated controls): reduction of mean tumor volume as compared to the nontreated controls; also recorded: reduced the mean tumor volume in the DMBA treated rats | breast estrogen receptor activities after iodine replacement (breast estrogen receptor; iodine deficiency): disappears upon iodine replacement | role in estrogen receptor function (breast estrogen receptor; rats): necessary for normal estrogen receptor function in rats | incidence of breast cancer versus women not so treated (breast cancer): less than the incidence of breast cancer in women who had not been so treated | nodularity of pelvic peritoneum (endometriosis; about 1 to 20 milligrams per day): subsidence of the nodularity of the patient's pelvic peritoneum | overall response to iodine treatment, series of patients (endometriosis; no other medication during trial therapy): This series of patients has responded | effect of stopping medication (endometriosis; third patient): asymptomatic for two cycles, and then their pain returned | pelvic pain and nodularity on treatment (endometriosis; third patient): within two cycles, with complete relief of pelvic pain and improvement in the pelvic nodularity on rectal examination | cyclic lower abdominal pain (endometriosis; three patients treated for fibrocystic breast dysplasia): coincident dramatic decrease in their cyclic lower abdominal pain | effect of restarting medication (endometriosis; two patients): The subjective symptoms and physical findings again improved within one cycle | effect of stopping medication (endometriosis; two patients): within one cycle, they had severe pain again, with increasing nodularity of the pelvic peritoneum on rectal examination | pain on treatment (endometriosis; two patients, 10 and 18 months): complete amelioration of their pain within one cycle of starting the medication | tumor response ([3]; about 0.5 mg per 100 gm body weight, orally or intraperitoneally, preliminary): more response to both diatomic iodine and estrogen

[O-][Cl+3]([O-])([O-])O [perchlorate, reference compound]
effect on tumorigenesis and iodide therapy ([3]; peroxidase-blocking agent): increases the tumorigenesis and the effectiveness of iodide therapy

[I-].[K+] [potassium iodide, reference compound]
reversal of pathological changes / tissue morphology of rat breast after iodine replacement [4]: only minimal success | improvement rate (dysplastic mastodynia): 71%

[I-].[Na+] [sodium iodide, reference compound]
breast dysplasia after iodine replacement [5]: the breast dysplasia appeared to abate with a partial subsidence of epithelial hyperplasia and a loss of cystic spaces but with a continuation of the fibrosis of the syndrome | reversal of pathological changes / tissue morphology of rat breast after iodine replacement [4]: reversal of the pathological changes to a degree with the partial subsidence of cyst formation, epithelial hyperplasia and fibrosis. The interacinar fibrosis remained | reversal of pathological changes / tissue morphology of rat breast after iodine replacement ([4]; listed as sodium iodide (NaI)): only minimal success | reversal of pathological changes / tissue morphology of rat breast after iodine replacement ([4]; listed as sodium iodine): The epithelial hyperplasia regressed and the cystic spaces disappeared, but the fibrous tissue remained

— patent US6019970A, “Treatment of iodine deficiency diseases” (priority 1997, dated 2000)
